The values below come from a melting point compilation (Tetko et al.; mined from patent text by program, amines drawn as free bases though some values may be those of a salt).

Take `CCCCCCCCCC(=O)Oc1ccc(/C=C2/C(=O)Nc3cc(OC)c(OC)cc32)cc1`: the melting point lay within 138 to 140 °C.
The same measure for `CCOP(=O)(OCC)C(C)NC(=O)c1cc(C)cc(OC)c1C1=CC(=O)c2c(O)cccc2C1=O` (configuration not stated): 130 to 132 °C; for `O=c1oc(C(F)F)nc2c(C(F)(F)F)cccc12`: 82 °C.
`Cc1c(C)c(C2CC(=O)C=C(O)C2)c(Cl)c2c1CCO2` (configuration not stated): the melting point came out at 224 °C.
The same measure for `Cc1cc(=O)oc2nn(Cc3cccnc3)c(C)c12`: 191 to 193 °C; for `CN(C)C(=O)C(=O)N1CN(C(=O)c2c(F)cccc2F)C(=O)N(c2ccc(Oc3ccc(C(F)(F)F)cc3Cl)cc2F)C1`: 98 to 100 °C; for `CC(C)c1ccccc1Sc1c(O)cc(-c2ccc(-c3cccnc3)cc2)oc1=O`: 145 to 147 °C.
The same measure for `O=C1CC2CC(O)(c3ccccc3)CC2C1` (configuration not stated): 158 to 159 °C; for `CCSC(C)(C)C(=O)CC(=O)Nc1cc(NC(=O)C(CC)Oc2ccc(C(C)(C)CC)cc2C(C)(C)CC)ccc1Cl` (configuration not stated): 65 to 68 °C.
With `Cc1cc(C)c2c(-c3ccc(C(C)C)cc3)coc2c1` the figure was 44 to 45 °C; with `CCC(OC)(c1cccc(OCc2cc3ccccc3n(C)c2=O)c1)c1nccs1` (configuration not stated), 123 to 125 °C; with `Cc1cc(Cc2cnc(NCCSCc3ncccc3Br)[nH]c2=O)cnc1C`, 105 to 107 °C.
`Cn1ncc2[nH]c3ccc(Cc4cccc(C(=O)O)c4)cc3c(=O)c21` had a melting point of over 300 °C.
`COc1ccc(-c2nc3ccc(CBr)cc3o2)cc1` displayed a melting point of 137 to 138 °C.
With `CS(=O)(=O)c1ccc(Oc2cc(OCc3cccc(Cl)n3)c3[nH]c(C4=NCC(CCO)S4)cc3c2)cc1` (configuration not stated) the figure was 93 to 94 °C.
With `CCN1CCc2cc(Nc3ncc(Cl)c(N[C@@H]4CCCC[C@H]4NS(C)(=O)=O)n3)c(OC)cc2CC1=O` the figure was 139 to 150 °C; with `Cc1ccc(S(=O)(=O)NC(=O)N2CC2C#N)cc1` (configuration not stated), 156 to 158 °C; with `Cc1cc2c(cc1C)OCC(NNc1ncnc3c1ncn3C1OC(CO)C(O)C1O)C2` (configuration not stated), 170 to 172 °C.
With `O=C(C=Cc1ccc(C(F)(F)F)cc1)N1CCc2c([nH]c3ccccc23)C1c1ccc2c(c1)OCO2` (configuration not stated) the figure was 233 °C; with `CC1=C(C(=O)OC(C)C)C(c2cccc([N+](=O)[O-])c2)n2c(cc(=O)n2S(=O)(=O)c2ccccc2)N1` (configuration not stated), 187 to 188 °C.
Turning to `CCOC(=O)N1CCc2nc3cccc(N)c3c(C)c2CC1`, the melting point was 182 °C.
`CCC(=O)c1ccc2c(c1)OCC(=O)N2` showed a melting point of 174 to 176 °C.
With `CCN(CC)C(=S)SCC(c1cccc2ccccc12)[N+](=O)[O-]` (configuration not stated) the figure was 136 to 138 °C; with `O=c1c2c[nH]cc(-c3ccccc3)c-2nn1-c1ccccc1`, 280 to 285 °C; with `OC1(CNc2nc3ccccc3s2)CCN(CC2COc3ccccc3O2)CC1` (configuration not stated), 176 °C.
The same measure for `COC1(c2cccc(OCc3ccc4ccccc4c3)c2)CCN(CC#N)C1` (configuration not stated): 76 to 77 °C.
With `COc1ccc(Cn2cc3nc(Cl)nc(-c4c(F)cccc4OC)c3n2)cc1` the figure was 180 to 181 °C; with `CC(=O)NC(C(=O)Nc1ccc(C(=O)O)cc1)c1ccc2c(c1)C(C)(C)CCC2(C)C` (configuration not stated), 258 to 259 °C; with `O=C1CC(c2cccc(-n3cncn3)c2)=Nc2ccc(-c3ccc(F)cc3)cc2N1`, 241 to 245 °C.
The molecule `CC(Br)C(=O)NS(=O)(=O)c1ccc2c(c1)CC(C)(C)O2` (configuration not stated) had a melting point of 125 to 128 °C.
The same measure for `CO/N=C(/C(=O)O)c1ccc(OCCOc2ccc3ccccc3c2)s1`: 118 to 120 °C; for `CCCCCCCCCCCCC1C=CC(Oc2ccc(C(=O)O)o2)=C2N=C3CCCCC3=C21` (configuration not stated): 110 to 112 °C.
The molecule `CC(=O)c1cc2c(c(C=O)c1O)CCCC2` showed a melting point of 77.5 to 78.5 °C.
The same measure for `COc1ccc(NC(=O)NC2CCN(Cc3ccccc3)CC2)c(CCc2cc(C(C)(C)C)c(O)c(C(C)(C)C)c2)c1`: 174 to 175 °C.
With `CCC(C)n1c(=O)ccc2cnc(Nc3ccccc3)nc21` (configuration not stated) the figure was 155 to 156 °C; with `NC(=O)N(O)CCn1cc(Sc2ccccc2)c2ccccc21`, 95 to 99 °C; with `CCOC(=O)c1cnc2cccc(O)c2c1`, 240 °C.
The same measure for `CCCCOc1cc(C(=O)O)cc(N)c1C(=O)c1ccc(C)cc1`: 170 to 172 °C; for `CC(=O)Oc1ccc(C(=O)Cl)cc1`: 167 °C; for `CNCc1cccc(C2CCN(c3c(F)c(N)c4c(=O)c(C(=O)O)cn(C5CC5)c4c3F)C2)c1` (configuration not stated): over 270 °C.
`CCOC(=O)C(=Cc1cccc([N+](=O)[O-])c1)C(=O)CCl` gave a melting point of 108 to 111 °C.
With `COc1cccc2cnc(C)nc12` the figure was 131 to 132 °C; with `O=C(O)c1ccccc1OC(F)(F)C(F)F`, 158 to 160 °C; with `COCC(=O)N[C@H]1CC[C@H](CCN2CCC(c3cccc4c3CCO4)CC2)CC1`, 156 °C.
The same measure for `Cc1ccc(C(C)NC(=O)C2CC(=O)c3cc(F)ccc3O2)cc1` (single isomer, unassigned; (+)): 157 °C; for `CC(=O)OCC(O)COc1ccc2nc(S(N)(=O)=O)sc2c1` (configuration not stated): 173 to 175 °C; for `COc1ccc(CNc2ncc[nH]2)cc1OC1CCCC1`: 114 to 115 °C.
With `COCC(OC(C)=O)C1CC(OC(C)=O)C2(C)CCC3C(CCC4CC(=O)CC(C)C43C)C12` (configuration not stated) the figure was 149 to 150 °C; with `CC(Oc1ncn(-c2ccccc2Cl)n1)C(=O)O` (configuration not stated), 104 to 106 °C; with `CCOc1ccc(C=O)c(F)c1F`, 70 °C.
Turning to `c1cnc2c(OCCOc3nccnc3N3CCNCC3)cccc2c1`, the melting point was 98 to 100 °C.
The same measure for `CCc1nc2c(cnn2CC)c(NC2CCOCC2)c1CNC(=O)c1cccc(C(=O)NCc2ccc(C)c(-c3cccc(CN4CCCNCC4)c3)c2)c1`: 118 to 120 °C; for `Cc1nc2sc(Br)cc2c(=O)n1-c1ccccc1Cl`: 164 to 166 °C.
Molecule `O=c1nc(-c2ccco2)sc2ccccc12` yielded a melting point of 170 to 172 °C.
In the case of `COCCNC(=O)c1cccc2c1C1(COc3cc4c(cc31)OCCO4)C(=O)N2C` (configuration not stated), the melting point fell in the range of 97 to 100 °C.
The same measure for `CC1=CC(c2cccc(C(F)(F)F)c2)C2=C(CCCC2=O)N1` (configuration not stated): 184 to 185 °C.
The same measure for `CCCCCCCCCCCCCCCCCCN=C=NCCCCCCCCCCCCCCCCCC`: 65 °C; for `COC(=O)NNC(=O)C(O)(c1ccccc1)c1ccccc1`: 160 to 161 °C; for `COc1ccc2c(c1)CC(N(C)CCCNC(=O)Cc1cc(OC)c(OC)cc1[N+](=O)[O-])CC2` (configuration not stated): 116 to 118 °C.
With `O=C(CCCC(=O)C(F)(F)F)c1cccc(OCc2ccccc2)c1` the figure was 75.3 to 80.3 °C; with `CCCNC1=NS(=O)(=O)c2cc(Cl)sc2N1`, 246 to 247 °C.
As for `O=CN1CCN(C2=C(O)C(=O)c3ccccc3C2=O)CC1`, the melting point fell in the range of 200 to 203 °C.
The same measure for `Nc1cccc(C(=O)NCCCn2ccnc2)c1`: 88 to 90 °C; for `O=C(O)[C@@H]1O[C@@H](c2ccccc2)N(NS(=O)(=O)c2ccc([N+](=O)[O-])cc2)[C@H]1c1ccccc1`: 61 to 65 °C; for `CCCCC[C@H]1CC[C@H](c2ccc(C(N)=O)cc2)CC1`: 234 to 235 °C.
In the case of `CC#CC(C)(C)NC(=O)C(OCC)Oc1cc(Cl)cc(Cl)c1` (configuration not stated), the melting point worked out at 76.5 °C.
Regarding `COc1ccc2cccnc2c1[N+](=O)[O-]`, the melting point stood at 178 °C.
With `c1ccc(CNc2nc3c(c4[nH]c(Cc5ccccc5)nc24)CCCC3)cc1` the figure was 199 to 200 °C.
The molecule `CC1(N)CCN(c2c(F)c(F)c3c(=O)c(C(=O)O)cn(C4CC4)c3c2F)C1` (configuration not stated) came in with a melting point of 280 to 282 °C.
The same measure for `CC(C)NCCCC(O)c1ccccc1-c1ccccc1` (configuration not stated): 78 to 80 °C; for `Nc1c(F)cc(Cl)cc1C(O)(C#CC1CC1)C(F)(F)F` (configuration not stated): 131 to 135 °C; for `CCOC(=O)c1ccc(-c2nc(-c3ccccc3)ccc2Cl)cc1`: 81 to 82 °C.
With `O=C(OC1CCCCC1)c1ncn2c1[C@@H]1CCCN1C(=O)c1c(Cl)cccc1-2` the figure was 166 to 167 °C; with `CC(C)(C)OC(=O)N[C@H]1C(=O)N[C@H]1CON1C(=O)c2ccccc2C1=O` (relative stereo), 218 to 219 °C.
The same measure for `O=C(Nc1ccc2ccc(Cl)nc2n1)c1ccc(F)cc1`: 236 °C; for `CN1C(=O)C2CC2(c2ccc(N(C)C)cc2)C1=O` (configuration not stated): 140 °C; for `CC(C(=O)O)c1ccc(C=C2CCCC2O)cc1` (configuration not stated): 125 to 132 °C.
Consider `CC1(S(=O)(=O)c2ccccc2)CCc2nc(-c3ccccc3)[nH]c(=O)c2C1` (configuration not stated), for which the melting point is over 250 °C.
On to `O=c1c2cc(F)c(N3CCCC3)nc2n(-c2ccccc2F)c(=O)n1OCc1ccccc1`, for which the melting point is 221 to 222 °C.
The same measure for `O=C(CNc1ccc2[nH]c(=O)sc2c1)N1CCC(Cc2ccccc2)CC1`: 196 to 199 °C; for `C[C@@H](n1cnc2cc(N3CCN(C)CC3)c(F)cc2c1=O)[C@](O)(Cn1cncn1)c1ccc(F)cc1F`: 106 to 112 °C; for `Cc1ccc(-c2cccnc2)nc1`: 40 to 41 °C.
Turning to `COc1ccccc1N1CC[N+]([O-])(CCN(C(=O)C2CCCCC2)c2ccccc2[N+](=O)[O-])CC1`, the melting point fell in the range of 128 to 132 °C.
On to `CN(CCOc1ccc(C=O)cc1)C(=O)OC(C)(C)C`, for which the melting point is 62 to 65 °C.
The molecule `CO[C@H]1c2ccn3c(C)c(C)nc3c2N[C@H](c2ccccc2)[C@H]1O` displayed a melting point of 108 to 110 °C.
Molecule `NC(=O)c1c(Cl)cc(Cl)c(O)c1Cl` displayed a melting point of 204 to 206 °C.
With `CCCC1=C(C(=O)OCC)C(c2ccccc2OC(C)C)c2c[nH]nc2N1` (configuration not stated), the melting point was 210 °C.

As usually defined, the melting point is the temperature of the solid-liquid transition.
